Data on 13 compounds can be found in patent US7517517B2 (Janssen Pharmaceutica N.V., priority 2002, dated 2009).

In series [1] the target is T1, rat mGlu1a receptor (Rattus norvegicus, UniProt P23385).
T1 construct: host or cells: CHO-dhfr- cells
Briefly: [3H]Compound A binding to rat mGlu1a receptor CHO-dhfr− membranes (saturation, kinetics, inhibition). Particulars: for Ki: 2.5 nM [3H]Compound A, 30 min at 4° C.; for inhibition of [3H]Compound A binding (in words): rat mGlu1a receptor CHO-dhfr− membranes.

Series [2] has as its target T1, rat mGlu1a receptor. As to the kind of experiment: [3H]quisqualate binding to rat mGlu1a receptor CHO-dhfr− membranes (saturation, inhibition).
The target in series [3] is T2, cloned rat mGlu1 receptor (Rattus norvegicus, UniProt P23385).
T2 construct: expressed in transfected cells; host or cells: CHO cells
Briefly: Signal transduction at the cloned rat mGlu1 receptor in CHO cells (glutamate-induced Ca2+ rise, FLIPR). It is filed as cell-based.

In another series the target is mGlu1 receptor (Rattus norvegicus, UniProt P23385). Briefly: [3H]Compound A binding to rat brain membranes (cortex, hippocampus, striatum, cerebellum). Particulars: tested up to 30 μM. How it is done:
Tissue preparation. Male Wistar rats (˜200 g) were sacrificed by decapitation. The brains were rapidly removed and cortex, hippocampus, striatum and cerebellum were immediately dissected. The fresh tissue was homogenized with an Ultra Turrax in 20 volumes of 50 mM Tris-HCl, pH 7.4 and tissue was centrifuged at 23,500 g for 10 min. After homogenisation using a DUAL homogeniser, membranes were washed twice by centrifugation at 23,500 g for 10 min. The final pellet was suspended in 10 volumes of 50 mM Tris-HCl, pH 7.4 and frozen at −80° C.
In vitro binding assay. After thawing, membranes from rat cortex, cerebellum, striatum and hippocampus were rehomogenized using a DUAL and suspended in ice-cold binding buffer containing 50 mM Tris-HCl, 1.2 mM MgCl2, 2 mM CaCl2, pH 7.4. The binding assay was carried out in a total volume of 0.5 ml containing 2.5 nM [^3H]Compound A and a membrane aliquot corresponding to 40 μg for cerebellar membranes, 60 μg for hippocampal membranes, 80 μg for striatal membranes or 150 μg for cortical membranes. […] After incubation for 30 min at 4° C., the labelled membranes were washed and harvested by rapid vacuum filtration over Whatman GF/C glass-fibre filters using a 40-well filtration manifold and radioactivity collected on the filters was counted as above.
Data analysis was performed using the GraphPad Prism program (GraphPad Prism Software, Inc., San Diego, Calif.). Saturation binding experiments were analysed using a non-linear regression analysis. Inhibition curves were fitted using non-linear regression analysis fitting the one-site competition equation: Y=Bottom+((Top−Bottom)/1+10^X-LogIC50). Ki values were calculated using the Cheng-Prusoff equation: Ki=IC50/[1+([C]/KD)] where C is the concentration of radioligand and KD is the dissociation constant of the radioligand (Cheng and Prusoff, Biochem. Pharmacol. 22, 3099-3108, 1973). The observed on (kob) and off (koff) rate were calculated from association-dissociation curves using the one-phase-exponential association and decay equations in the Prism program, respectively. kon was calculated by subtracting koff from kob and dividing by the radioligand concentration. The two-tailed Student's t-test was used for statistical evaluation of the binding data: * p<0.05, ** p<0.01 and *** p<0.001. The Dunnett's t-test following a 2-way analysis of variance (with as factors compound concentration and experiment) were used to analyse the data from the IP experiments.

Series [4] has as its target T1, rat mGlu1a receptor. As to the kind of experiment: Intracellular Ca2+ response in rat mGlu1a receptor expressing CHO-dhfr− cells (FLIPR). Particulars: CHO-dhfr− cells expressing rat mGlu1a; same assay; read-out: IC50, inhibition of the glutamate-induced increase in [Ca2+]i. It counts as cell-based.
Setting [5] is: inhibition of [3H]quisqualate binding, rat mGlu1a receptor CHO-dhfr− membranes, mean ± SD of 2 experiments.

Like-named read-outs stand apart in the source and are kept apart here. A value given as a limit tells only on which side of the number the result lay.

T1 sequence (P23385 19-1199): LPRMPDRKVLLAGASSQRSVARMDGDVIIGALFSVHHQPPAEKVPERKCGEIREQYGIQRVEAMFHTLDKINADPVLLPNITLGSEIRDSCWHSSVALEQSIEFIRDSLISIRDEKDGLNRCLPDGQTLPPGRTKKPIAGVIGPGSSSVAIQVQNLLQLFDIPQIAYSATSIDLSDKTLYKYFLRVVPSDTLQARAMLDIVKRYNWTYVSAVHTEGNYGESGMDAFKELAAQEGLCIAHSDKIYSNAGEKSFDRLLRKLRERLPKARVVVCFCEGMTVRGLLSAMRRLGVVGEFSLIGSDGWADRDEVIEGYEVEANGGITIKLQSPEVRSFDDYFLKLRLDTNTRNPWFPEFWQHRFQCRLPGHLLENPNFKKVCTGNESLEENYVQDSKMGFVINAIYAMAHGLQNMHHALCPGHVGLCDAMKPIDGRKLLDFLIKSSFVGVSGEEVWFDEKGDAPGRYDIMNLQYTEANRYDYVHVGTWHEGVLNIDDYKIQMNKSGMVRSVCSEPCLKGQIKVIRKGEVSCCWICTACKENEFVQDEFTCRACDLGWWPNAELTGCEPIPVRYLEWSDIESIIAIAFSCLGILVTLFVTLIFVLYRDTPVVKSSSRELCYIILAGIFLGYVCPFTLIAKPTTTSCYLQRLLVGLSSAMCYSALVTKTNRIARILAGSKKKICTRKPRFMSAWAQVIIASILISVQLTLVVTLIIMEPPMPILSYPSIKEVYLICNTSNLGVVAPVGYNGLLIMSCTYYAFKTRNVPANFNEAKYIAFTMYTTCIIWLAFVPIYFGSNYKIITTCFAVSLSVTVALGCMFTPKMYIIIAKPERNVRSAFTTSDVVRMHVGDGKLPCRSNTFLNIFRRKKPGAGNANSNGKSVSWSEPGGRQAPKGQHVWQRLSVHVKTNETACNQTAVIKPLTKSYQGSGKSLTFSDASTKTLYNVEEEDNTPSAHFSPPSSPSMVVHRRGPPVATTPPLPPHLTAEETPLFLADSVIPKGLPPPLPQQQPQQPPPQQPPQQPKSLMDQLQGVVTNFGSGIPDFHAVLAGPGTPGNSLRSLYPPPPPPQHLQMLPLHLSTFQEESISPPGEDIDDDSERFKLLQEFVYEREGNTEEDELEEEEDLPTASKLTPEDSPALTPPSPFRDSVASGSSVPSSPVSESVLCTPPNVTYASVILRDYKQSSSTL
T2 sequence (P23385 19-1199): as above

Usually Ki stands for the dissociation constant of the complex between target and ligand, obtained from inhibition or displacement. For orientation: Hill coefficient means a measure of the steepness of the concentration-response curve. In the case of `Cc1cc(C(=O)O)ccc1[C@H](N)C(=O)O` [LY367385, reference compound], the Ki on rat mGlu1a receptor [1] (mean ± SD of 3–4 experiments) was above 1e+06 nM; on rat mGlu1a receptor [2] (setting [5]), 1.18 ± 0.47 µM. Besides, the “inhibition of [3H]Compound A binding (in words)” value (“inhibition” below) on rat mGlu1a receptor [1] is “did not inhibit”. The Hill coefficient on rat mGlu1a receptor [2] (setting [5]) was found to be 0.99 ± 0.01.

Take `O=C(NC12CC3CC(CC(C3)C1)C2)c1cnc2ccccc2n1` [NPS 2390, reference compound]: the Ki on rat mGlu1a receptor [1] (mean ± SD of 3–4 experiments) is 1.36 ± 0.5 nM; on rat mGlu1a receptor [2] (setting [5]), above 1000 µM. On rat mGlu1a receptor [1] (inhibition of [3H]Compound A-binding, mean ± SD of 3–4 experiments), the Hill coefficient worked out at 0.97 ± 0.02. Further, the “effect on [3H]quisqualate binding (in words)” value at rat mGlu1a receptor [2] (rat mGlu1a receptor CHO-dhfr− membranes) is listed as “did not affect”.

What is called melting point is the temperature of the solid-liquid transition. For orientation: IC50 means the concentration at which inhibition is half-maximal. Compound `CCc1cc2cc(C(=O)C3CCC(OC)CC3)ccc2n2nnnc12` (stereo not shown) [Compound 35] returned a melting point of 160 °C. For the same compound, inhibition in series [3] (inhibition of glutamate-induced intracellular Ca2+ rise, CHO cells expressing mGlu1 receptor, compounds with pIC50 between 7 and 8) was half-maximal at 0.0437 µM (IC50).

As to `Cc1cccc(C#Cc2ccccc2)n1` [MPEP, reference compound], the “effect on [3H]Compound A binding to rat cerebellar membranes” value on mGlu1 receptor is “did not affect”.

Take `N[C@H](C(=O)O)c1ccc(C(=O)O)c(O)c1` [(S)-4C3HPG]: the Ki at rat mGlu1a receptor [1] (mean ± SD of 3–4 experiments) was above 1e+06 nM; on rat mGlu1a receptor [2] (setting [5]) it was 1.65 ± 0.06 µM. Further, the Hill coefficient at rat mGlu1a receptor [2] (setting [5]) was 0.98 ± 0.02.

The compound `CCc1cc2cc(C(=O)C3CCC(OC)CC3)ccc2nc1C#C[Si](C)(C)C` (stereo not shown) [Compound 14] gave a melting point of 114 °C. Besides, the IC50 in series [3] is 0.0631 µM.

`N[C@H](C(=O)O)c1ccc(C(=O)O)cc1` [(S)-4CPG, reference compound] showed a Ki at rat mGlu1a receptor [1] (mean ± SD of 3–4 experiments) above 1e+06 nM. For the same compound, at rat mGlu1a receptor [1], the “inhibition” value is listed as “did not inhibit”. Moreover, at rat mGlu1a receptor [2] (setting [5]), the Hill coefficient came to 0.98 ± 0.00 and the affinity, expressed as Ki, was 4.51 ± 0.78 µM.

In turn, `N[C@H](C(=O)O)c1cc(O)cc(O)c1` [(S)-3,5-DHPG, reference compound] returned a Ki on rat mGlu1a receptor [1] (mean ± SD of 3–4 experiments) above 1e+06 nM. Moreover, the “inhibition” value at rat mGlu1a receptor [1] is reported as “did not inhibit”. Also, on rat mGlu1a receptor [2] (setting [5]), the Hill coefficient was 0.97 ± 0.00 and the affinity corresponds to a Ki of 1.42 µM.

As to `NC1(C(=O)O)CCc2cc(C(=O)O)ccc21` (stereo not shown) [AIDA, reference compound], the Ki on rat mGlu1a receptor [1] (mean ± SD of 3–4 experiments) was above 1e+06 nM. In addition, the “inhibition” value on rat mGlu1a receptor [1] is given as “did not inhibit”. On rat mGlu1a receptor [2] (setting [5]), this compound came in with a Hill coefficient of 0.98 ± 0.03 and a Ki of 98.3 ± 15.4 µM.

As to `N[C@@]1(C(=O)O)CC[C@@H](C(=O)O)C1` [1S,3R-ACPD, reference compound], the “inhibition” value on rat mGlu1a receptor [1] was “did not inhibit”. At rat mGlu1a receptor [2] (setting [5]), the Hill coefficient was 0.97 ± 0.01.

For `N[C@@H](Cn1oc(=O)[nH]c1=O)C(=O)O` [quisqualate, reference compound], the “inhibition” value at rat mGlu1a receptor [1] is recorded as “did not inhibit”. Also, the Hill coefficient at rat mGlu1a receptor [2] (setting [5]) is reported as 0.98 ± 0.01.

Broadly, the pIC50 is the negative decadic logarithm of the IC50, by convention in mol/L. The low end stands for a large IC50, the high end for a small IC50. Compound `CCc1cc2cc(C(=O)C3CCC(OC)CC3)ccc2nc1C` (stereo not shown) [Compound 27] displayed a melting point of 110 °C. Further, the pIC50 in series [3] (50% inhibition of the glutamate-induced intracellular Ca2+ rise, CHO cells, FLIPR) turned out to be 8.527.

With `CCOC(=O)[C@]12CC1/C(=N\O)c1ccccc1O2` (mixture of isomers) [CPCCOEt, reference compound], the Ki at rat mGlu1a receptor [1] (mean ± SD of 3–4 experiments) is 4900 nM; on rat mGlu1a receptor [2], above 1000 µM. In addition, the IC50 at rat mGlu1a receptor [4] came out at 10.3 ± 0.8 µM.
